According to patent US8039430B2 (University of Wollongong, priority 2005, dated 2011):

Tests used:
[1] = system: #243 E. faecium van B ST17; assay: Antibacterial assay (MIC), VRE strain #243, Enterococossel Broth, Example 1; format: cell-based, Enterococcus faecium; conditions: Enterococcus faecium; Example 1 compounds; VRE #243 E. faecium van B; 24 hrs, 37° C.; read-out: 243 (minimum inhibitory concentration)
Method in brief: (§1)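 Broth microdilution in Enterococossel Broth, triplicate twofold dilutions from 125 to 0.98 ug/ml, inoculated with 1/1000-diluted overnight E. faecium van B culture. Incubated 24 h at 37° C with slow rotation. MIC read as lowest concentration without pellet or black medium; first-row DMSO 2.5%.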

[2] = system: #449 E. faecium van B ST17; assay: Antibacterial assay (MIC), VRE strain #449, Enterococossel Broth, Example 1; format: cell-based, Enterococcus faecium; conditions: Enterococcus faecium; Example 1 compounds; VRE #449 E. faecium van B; 24 hrs, 37° C.; read-out: 449 (minimum inhibitory concentration)
Method in brief: as §1

[3] = system: #820 E. faecium van A ST17; assay: Antibacterial assay (MIC), VRE strain #820, Enterococossel Broth, Example 1; format: cell-based, Enterococcus faecium; conditions: Enterococcus faecium; Example 1 compounds; VRE #820 E. faecium van A; 24 hrs, 37° C.; read-out: 820 (minimum inhibitory concentration)
Method in brief: (§2)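 Broth microdilution MIC vs E. faecium VRE strains grown in Enterococossel broth, inoculum 1/1000 of overnight culture; compounds tested in triplicate at 125–0.98 ug/ml (2-fold), top-well DMSO 2.5%. Plates incubated 24 h at 37 °C; MIC read as clear well, no pellet and no black colouring of medium.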

[4] = system: Multi-Drug-Resistant Staphylococcus epidermidis (ATCC 700562); assay: MIC determination by micro-broth dilution (NCCLS), multi-drug-resistant S. epidermidis; format: cell-based; conditions: ATCC700562, Example 1 compounds, Mueller Hinton II broth, 24 hours, 37° C.
Experimental: (§3) Antibacterial Assay Methods for Staphylococcus aureus Mu50 (ATCC 700699), Methicillin-Resistant Staphylococcus aureus (ATCC 43300), Multi-Drug-Resistant Staphylococcus epidermidis (ATCC 700562) Compounds
(§4) The compounds were stored at room temperature in the dark prior to use. Each compound was solubilized in DMSO to a final concentration of 40 mg/mL. The stock material was diluted to a concentration equivalent to two times the final in-well high test concentration (100 μg/mL for all experimental compounds) in Mueller Hinton II broth. […] Vancomycin and oxacillin were obtained from Sigma Aldrich Chemical Company and were used as positive and/or negative control compounds in the reported assays at high test concentrations of 100, 25 and 100 μg/mL respectively.
(§5) The bacterial strains employed in these assays were obtained from the American Type Culture Collection (ATCC). All of the bacterial strains were propagated as recommended by the ATCC. Each strain was stored as a frozen glycerol stock at −80° C. and a 10 μL loop of the frozen stocks was used to inoculate each culture for these assays.
(§6) The susceptibility of the above microorganisms to the test compounds was evaluated by determining the MIC of each compound using micro-broth dilution analysis according to the methods recommended by the NCCLS. All microbial strains were obtained from American Type Culture Collections (ATCC) and cultured according to the suppliers recommendations. Evaluation of the susceptibility of each organism against the test compounds included a positive control antibiotics Vancomycin and Oxacillin. For each organism, a standardized inoculum was prepared by direct suspension of freshly plated colonies in Mueller Hinton II broth to an optical density 625 nm (OD625) of 0.1 (equivalent to a 0.5 McFarland standard). The suspended inoculum was diluted to a concentration of approximately 1×10^6 colony forming units per milliliter (CFU/mL) and 100 μL placed into triplicate wells of a 96-well plate containing 100 μL of test compound serially diluted 2-fold in Mueller Hinton II broth. One hundred microliters of the inoculum was also added to triplicate wells containing 100 μL of two-fold serial dilutions of a positive control antibiotic and to wells containing 100 μL of media only. This dilution scheme yielded final concentrations for each microbial organism estimated to be 5×10^5 CFU/mL (verified by colony quantification on appropriate agar plates, data is not presented). Test compound concentrations ranged from a high-test of 1:2 (100 μg/mL)) to a low test of 1:2048 (0.1 μg/mL) using a two-fold dilution scheme. The plates were incubated for 24 hours at 37° C., and the microbial growth at each concentration of compound was determined by measuring the optical density at 625 nm on a Molecular Devices SpectraMax Plus-384 plate reader.
(§7) Microsoft Excel 2003 was used to analyze and graph the data, and the MIC (minimal inhibitory concentration) was determined from the resulting data.

[5] = system: Staphylococcus aureus Mu50 (ATCC 700699); assay: MIC determination by micro-broth dilution (NCCLS), S. aureus Mu50; format: cell-based; conditions: ATCC700699, Example 1 compounds, Mueller Hinton II broth, 24 hours, 37° C.
Experimental: as §3, §4, §5, §6, §7

[6] = system: Methicillin-Resistant Staphylococcus aureus (ATCC 43300); assay: MIC determination by micro-broth dilution (NCCLS), methicillin-resistant S. aureus; format: cell-based; conditions: ATCC43300, Example 1 compounds, Mueller Hinton II broth, 24 hours, 37° C.
Experimental: as §3, §4, §5, §6, §7

[7] = system: Staphylococcus aureus (ATCC 6538P); assay: Antibacterial assay (MIC), Staphylococcus aureus ATCC 6538P, Luria Broth, Example 1; format: cell-based; conditions: Staphylococcus aureus, ATCC6538P; Example 1 compounds; S. aureus ATCC 6538P; 24 hrs, 37° C.; range if at least two of three values fell within it; read-out: Sa (minimum inhibitory concentration)
Method in brief: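 Broth microdilution in Luria Broth, 2-fold series from 125 to 0.98 ug/ml in triplicate, with 1/1000-diluted overnight culture; up to 2.5% DMSO. Incubated 24 hrs at 37° C with slow rotation; MIC read as lowest concentration giving a clear well without bacterial pellet.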

[8] = system: #987 E. faecium van B ST39; assay: Antibacterial assay (MIC), VRE strain #987, Enterococossel Broth, Example 1; format: cell-based, Enterococcus faecium; conditions: Enterococcus faecium; Example 1 compounds; VRE #987 E. faecium van B; 24 hrs, 37° C.; read-out: 987 (minimum inhibitory concentration)
Method in brief: as §2

[9] = system: E.f243; assay: Antibacterial screening (MIC) of compounds of Example 2, E.f243; format: cell-based, Enterococcus faecium; conditions: Enterococcus faecium; Example 2 compounds; enterococci strain E.f243; read-out: Antibacterial activity μg/mL, E.f243
Experimental: (§8) • All assays used the Staphylococcus aureus strain ATCC 6538P. • Assays described in Chapter 5 additionally used the vancomycin-resistant enterococci and vancomycin-sensitive enterococci strains Ef243, Ef449, Ef820 and Ef487. Culture Media • Mueller-Hinton Broth Medium (MHB): MHB (Oxoid CM405) was prepared with final concentrations of […] MgCl2 and 2 μg/mL CaCl2. Culture medium was pre-warmed for approximately 2-3 h at 37° C. before use. • Mueller-Hinton Agar Medium (MHA): MMB containing 1.5% Agar (Merck Agar 1.01614). Maintenance of Bacteria • From a thawed cryovial, the bacteria was streaked onto MHA and the plate incubated overnight at 37° C. • From this plate, 10 cryovials were prepared by looping several colonies into 0.5 mL of 20% glycerol solution. The cryovials were immediately stored at −140° C. Preparation of Seed Cultures • A cryovial was removed from −140° C. storage and thawed at room temperature. • An MHA plate was streaked with a loopful of bacterial suspension and incubated overnight at 37° C. to create a parent plate (P1). • A daughter plate (D1) was streaked from the parent plate and incubated overnight at 37° C. […] The second parent plate (P2) was used to generate two additional daughter plates using the procedure outlined above before being discarded. • Cryovials were used twice to prepare parent plates (P1 and P2) before being discarded. […] A vancomycin control set (triplicate) and a compound negative control set (triplicate) were also included on each plate (FIG. 1). • The inoculated culture medium was incubated at 37° C. for 30 min, with shaking at 130 rpm. • Using a multichannel pipette, the contents of the first row were mixed before 50 μL was transferred to the second row. The pipette tips were changed and the process repeated by 50 μL of the mixed broth solutions in the second row being transferred to the third row. This process was repeated until the last row contained either the diluted test compound or a control (vancomycin or compound-negative). […] Antibacterial Testing of Compounds of Example 2 Introduction
(§9) The specific testing procedures and protocols are outlined in the section “Antibacterial Screening Methodology for the Compounds of Example 2”.
(§10) Vancomycin was used as the standard/control.

[10] = system: Staphylococcus aureus strain ATCC 6538P; assay: Antibacterial screening (MIC) of compounds of Example 2, S. aureus, Mueller-Hinton broth; format: cell-based; conditions: Staphylococcus aureus, ATCC6538P; Example 2 compounds (linear cationic peptides); S. aureus, vancomycin-susceptible strain; read-out: Antibacterial activity μg/mL, S.a
Method in brief: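 Broth dilution against S. aureus ATCC 6538P in cation-supplemented Mueller-Hinton broth at 37 °C, with inoculated medium shaken 30 min at 130 rpm before serial transfer-dilution of compound. Triplicate vancomycin and compound-negative controls on each plate. MIC is the lowest concentration that prevents bacterial growth.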

[11] = system: E.f449; assay: Antibacterial screening (MIC) of compounds of Example 2, E.f449; format: cell-based, Enterococcus faecium; conditions: Enterococcus faecium; Example 2 compounds; enterococci strain E.f449; read-out: Antibacterial activity μg/mL, E.f449
Experimental: as §8, §9, §10

[12] = system: E.f987; assay: Antibacterial screening (MIC) of compounds of Example 2, E.f987; format: cell-based, Enterococcus faecium; conditions: Enterococcus faecium; Example 2 compounds; enterococci strain E.f987; read-out: Antibacterial activity μg/mL, E.f987
[13] = system: E.f820; assay: Antibacterial screening (MIC) of compounds of Example 2, E.f820; format: cell-based, Enterrococci faecium; conditions: Example 2 compounds; fully vancomycin-resistant strain E.f820; read-out: Antibacterial activity μg/mL, E.f820
Experimental: as §8, §9, §10

SMILES | MIC [1] | MIC [2] | MIC [3] | MIC [4] | MIC [5] | MIC [6] | MIC [7] | MIC [8] | MIC [9] | MIC [10] | MIC [11] | MIC [12] | MIC [13]
CC(C)CCOc1ccc2ccccc2c1-c1c(OCC(=O)N[C@H](CCCCN)C(=O)N[C@H](CCCNC(=N)N)C(=O)N[C@H](COCc2ccccc2)CC(C)C)ccc2ccccc12.Cl.Cl (atropisomer, axis not shown) [Compound 15] | 15.7 to 62.5 µg/mL | 15.7 to 62.5 µg/mL | 15.7 to 62.5 µg/mL | 0.99 to 15.6 µg/mL | 0.99 to 15.6 µg/mL | 0.99 to 15.6 µg/mL | 0.99 to 15.6 µg/mL | 15.7 to 62.5 µg/mL |  |  |  |  | 
CC(C)CCOc1ccc2ccccc2c1-c1c(OCCNC(=O)[C@@H](CCCCN)NC(=O)[C@@H](CCCNC(=N)N)NC(=O)[C@@H](CC(C)C)NC(=O)Cc2ccccc2)ccc2ccccc12.Cl.Cl (atropisomer, axis not shown) [Compound 30] | > 62.6 µg/mL | > 62.6 µg/mL | > 62.6 µg/mL | 0.99 to 15.6 µg/mL | 0.99 to 15.6 µg/mL | 0.99 to 15.6 µg/mL | 0.99 to 15.6 µg/mL | > 62.6 µg/mL |  |  |  |  | 
Cl.Cl.N=C(N)NCCC[C@@H](NC(=O)CCCOc1ccc2ccccc2c1-c1c(OCCCC(=O)N[C@H](CCCNC(=N)N)C(=O)OCc2ccccc2)ccc2ccccc12)C(=O)OCc1ccccc1 (atropisomer, axis not shown) [Compound 31] | 15.7 to 62.5 µg/mL | 15.7 to 62.5 µg/mL | 15.7 to 62.5 µg/mL | 0.99 to 15.6 µg/mL | 15.7 to 62.5 µg/mL | 0.99 to 15.6 µg/mL | 0.99 to 15.6 µg/mL | 15.7 to 62.5 µg/mL |  |  |  |  | 
CC(C)CCOc1ccc2ccccc2c1-c1c(OCC(=O)N[C@H](CCCCN)C(=O)N[C@H](CCCNC(=N)N)C(=O)N[C@@H](CC(C)C)C(=O)OCc2ccccc2)ccc2ccccc12.Cl.Cl (atropisomer, axis not shown) [Compound 1] | 15.7 to 62.5 µg/mL | 15.7 to 62.5 µg/mL | 0.99 to 15.6 µg/mL | 0.99 to 15.6 µg/mL | 0.99 to 15.6 µg/mL | 0.99 to 15.6 µg/mL | 0.99 to 15.6 µg/mL | 15.7 to 62.5 µg/mL |  |  |  |  | 
CC(C)CCOc1ccc2ccccc2c1-c1c(OCC(=O)N[C@H](CCCCN)C(=O)N[C@H](CCCNC(=N)N)C(=O)N[C@@H](CC(C)C)c2ncc(-c3ccccc3)o2)ccc2ccccc12.Cl.Cl (atropisomer, axis not shown) [Compound 16] | > 62.6 µg/mL | > 62.6 µg/mL | > 62.6 µg/mL | 0.99 to 15.6 µg/mL | 0.99 to 15.6 µg/mL | 0.99 to 15.6 µg/mL | 0.99 to 15.6 µg/mL | > 62.6 µg/mL |  |  |  |  | 
CC(C)CCOc1ccc2ccccc2c1-c1c(OCC(=O)N[C@H](CCCCN)C(=O)N[C@H](CCCNC(=N)N)C(=O)NC2(C(=O)OCc3ccccc3)CCCCC2)ccc2ccccc12.Cl.Cl (atropisomer, axis not shown) [Compound 21] | 15.7 to 62.5 µg/mL | 15.7 to 62.5 µg/mL | 15.7 to 62.5 µg/mL | 0.99 to 15.6 µg/mL | 0.99 to 15.6 µg/mL | 0.99 to 15.6 µg/mL | 0.99 to 15.6 µg/mL | 15.7 to 62.5 µg/mL |  |  |  |  | 
C=CC[C@H](NC(=O)[C@@H](CCCNC(=N)N)NC(=O)[C@@H](CCCCN)NC(=O)COc1ccc2ccccc2c1-c1c(OC)ccc2ccccc12)C(=O)OCc1ccccc1.Cl.Cl (atropisomer, axis not shown) [Compound 135] |  |  |  |  |  |  |  |  | 125 µg/mL | 7.8 µg/mL | 62.5 µg/mL | 125 µg/mL | 62.5 µg/mL
C=CCOc1ccc2ccccc2c1-c1c(OCC(=O)N[C@H](CCCNC(=N)N)C(=O)Nc2cccc(C(=O)NOCc3ccccc3)c2)ccc2ccccc12.Cl (atropisomer, axis not shown) [Compound 162] |  |  |  |  |  |  |  |  | > 125 µg/mL | 3.9 µg/mL | > 125 µg/mL | > 125 µg/mL | > 125 µg/mL
